In patent US9441023B2, “Peptide YY analogs” (GlaxoSmithKline Intellectual Property Development Limited, priority 2013, dated 2016):
Where no end group is shown, it is not given here.

Tests used:
[1] = cumulative food intake, lean mice (Model A), BioDaQ system; assay type: in vivo; conditions: lean male C57BL/6 mice, 1 mg/kg s.c., relative to vehicle, negative = reduction
Procedure: Cumulative food intake after 6 h was determined for the PYY analogs in either lean (Model A) or diet-induced obese (DIO) (Model B) C57BL/6 mice in a BioDaQ system for continuous monitoring of food intake (Research Diets Inc., New Brunswick, N.J.). […] Mice were placed singly into the BioDaQ cages and acclimatized for a minimum of 6 days and were allowed ad libitum access to food and water. Approximately 1 hour prior to lights-out, animals were dosed subcutaneously with either vehicle (20 mM Acetate buffer, pH 4.9 or 20% DMSO in water) or analogs dissolved in vehicle (1 mg/kg) (8 animals per group). Once all animals have been dosed, feeder gates were opened providing ad-libitum access to food. Continuous food intake was monitored and collected for 15 hours. […] P-values <0.05 were considered to indicate a significant difference between treatment groups.

[2] = chronic (41 days) efficacy study in DIO Long Evans rats: body weight, body composition, food intake; assay type: in vivo, Long Evans rat; conditions: DIO LE rats
Procedure: Rats were 17 weeks old at the start of the study. The rats were housed 1 per cage and given ad libitum access to TD.95217 chow and water, maintained on a 12 h light/dark cycle from 5:00 AM to 5:00 PM at 21° C. and 50% relative humidity and allowed to acclimate for at least 7 days prior to baseline measurements. Baseline fat mass and non-fat mass measurements were taken 3 days before the start of peptide infusion and on day 40 of treatment using a QMR instrument (Echo Medical Systems, Houston, Tex.). […] Each rat was implanted with two osmotic pumps subcutaneously in the scapula region containing vehicle or peptide according to their treatment group. Body weight and food intake were measured twice per week beginning three days before the 41-day treatment period. On day 41 of treatment, whole blood was collected by cardiac stick under isoflurane anesthesia. Plasma and serum were then prepared from the whole blood for serum chemistry analysis. All the data are presented as mean±SEM. The data were analyzed in either Prism (GraphPad Software, Inc., La Jolla, Calif.) or Excel using a Student's T-test to compare each group to the appropriate control group. P-values <0.05 were considered to indicate a significant difference between treatment groups.

[3] = chronic (26 days) efficacy study in diabetic ZDF rats: glucose and HbA1c; assay type: in vivo, Zucker Diabetic Fatty (ZDF) rat
Excerpt: Male ZDF rats were 12 weeks old at the start of the study (Charles River, Inc., Boston, Mass.). […] Baseline fat mass and non-fat mass measurements were taken 3 days before the start of peptide infusion and on day 26 of treatment using a QMR instrument (Echo Medical Systems, Houston, Tex.). […] P-values <0.05 were considered to indicate a significant difference between treatment groups.

[4] = Table 1, cumulative food intake after 6 h
[5] = s.c. infusion, used as study dose

| Compound | % reduction in food intake, model A [1, 4] [%] | % reduction in food intake, model A ([1]; Table 2, 6 h time point) [%] | further results |
| --- | --- | --- | --- |
| CC(C)C[C@H](NC(=O)[C@H](CO)NC(=O)[C@H](C)NC(=O)[C@H](Cc1ccc(O)cc1)NC(=O)[C@H](Cc1ccc(O)cc1)NC(=O)[C@H](CCCNC(=N)N)NC(=O)[C@H](CC(N)=O)NC(=O)[C@H](CC(C)C)NC(=O)[C@H](CCC(=O)O)NC(=O)[C@H](CCC(=O)O)NC(=O)[C@@H]1CCCN1C(=O)[C@H](CO)NC(=O)[C@H](C)NC(=O)[C@H](CC(=O)O)NC(=O)[C@H](CCCCN)NC(=O)CNC(=O)[C@@H]1CCCN1C(=O)[C@H](C)NC(=O)[C@H](CCC(=O)O)NC(=O)[C@@H]1CCCN1C(=O)[C@H](CCCCN)NC(=O)[C@@H]1CCCN1)C(=O)N[C@@H](CCCNC(=N)N)C(=O)N[C@@H](CCCCN)C(=O)N[C@@H](Cc1ccc(O)cc1)C(=O)N[C@@H](CC(C)C)C(=O)N[C@@H](CC(N)=O)C(=O)N[C@@H](Cc1c[nH]c2ccccc12)C(=O)N[C@@H](CC(C)C)C(=O)N[C@H](C(=O)N[C@@H](CCCNC(=N)N)C(=O)N[C@@H](CCC(N)=O)C(=O)N[C@@H](CCCNC(=N)N)C(=O)N[C@@H](Cc1ccc(O)cc1)C(N)=O)[C@@H](C)O [Example 2] | −50 | – | – |
| CC(C)C[C@H](NC(=O)[C@H](CO)NC(=O)[C@H](C)NC(=O)[C@H](Cc1ccc(O)cc1)NC(=O)[C@H](Cc1ccc(O)cc1)NC(=O)[C@H](CCCNC(=N)N)NC(=O)[C@H](CC(N)=O)NC(=O)[C@H](Cc1c[nH]c2ccccc12)NC(=O)[C@H](CCC(=O)O)NC(=O)[C@H](CCC(=O)O)NC(=O)[C@@H]1CCCN1C(=O)[C@H](CO)NC(=O)[C@H](C)NC(=O)[C@H](CC(=O)O)NC(=O)[C@H](CCCCN)NC(=O)CNC(=O)[C@@H]1CCCN1C(=O)[C@H](C)NC(=O)[C@H](CCC(=O)O)NC(=O)[C@@H]1CCCN1C(=O)[C@H](CCCCN)NC(=O)[C@@H]1CCCN1)C(=O)N[C@@H](CCCNC(=N)N)C(=O)N[C@@H](CCCCN)C(=O)N[C@@H](Cc1ccc(O)cc1)C(=O)N[C@@H](CC(C)C)C(=O)N[C@@H](CC(N)=O)C(=O)N[C@@H](Cc1c[nH]c2ccccc12)C(=O)N[C@@H](CC(C)C)C(=O)N[C@H](C(=O)N[C@@H](CCCNC(=N)N)C(=O)N[C@@H](CCC(N)=O)C(=O)N[C@@H](CCCNC(=N)N)C(=O)N[C@@H](Cc1ccc(O)cc1)C(N)=O)[C@@H](C)O [Example 6] | −88 | – | – |
| CC(C)C[C@H](NC(=O)[C@H](CC(=O)O)NC(=O)[C@H](C)NC(=O)[C@H](Cc1ccc(O)cc1)NC(=O)[C@H](Cc1ccc(O)cc1)NC(=O)[C@H](CCCNC(=N)N)NC(=O)[C@H](CC(N)=O)NC(=O)[C@H](Cc1c[nH]c2ccccc12)NC(=O)[C@H](CCC(=O)O)NC(=O)[C@H](CCC(=O)O)NC(=O)[C@@H]1CCCN1C(=O)[C@H](CO)NC(=O)[C@H](C)NC(=O)[C@H](CC(=O)O)NC(=O)[C@H](CCCCN)NC(=O)CNC(=O)[C@@H]1CCCN1C(=O)[C@H](C)NC(=O)[C@H](CCC(=O)O)NC(=O)[C@@H]1CCCN1C(=O)[C@H](CCCCN)NC(=O)[C@@H]1CCCN1)C(=O)N[C@@H](CCCNC(=N)N)C(=O)N[C@@H](CCCCN)C(=O)N[C@@H](Cc1ccc(O)cc1)C(=O)N[C@@H](CC(C)C)C(=O)N[C@@H](CC(N)=O)C(=O)N[C@@H](Cc1c[nH]c2ccccc12)C(=O)N[C@H](C(=O)N[C@H](C(=O)N[C@@H](CCCNC(=N)N)C(=O)N[C@@H](CCC(N)=O)C(=O)N[C@@H](CCCNC(=N)N)C(=O)N[C@@H](Cc1ccc(O)cc1)C(N)=O)[C@@H](C)O)C(C)C [Example 8] | −74 | – | – |
| CC(C)C[C@H](NC(=O)[C@H](CO)NC(=O)[C@H](C)NC(=O)[C@H](Cc1ccc(O)cc1)NC(=O)[C@H](Cc1ccc(O)cc1)NC(=O)[C@H](CCCNC(=N)N)NC(=O)[C@H](CC(N)=O)NC(=O)[C@H](Cc1c[nH]c2ccccc12)NC(=O)[C@H](CCC(=O)O)NC(=O)[C@H](CCC(=O)O)NC(=O)[C@@H]1CCCN1C(=O)[C@H](CO)NC(=O)[C@H](C)NC(=O)[C@H](CC(=O)O)NC(=O)[C@H](CCCCN)NC(=O)CNC(=O)[C@@H]1CCCN1C(=O)[C@H](C)NC(=O)[C@H](CCC(=O)O)NC(=O)[C@@H]1CCCN1C(=O)[C@H](CCCCN)NC(=O)[C@@H]1CCCN1)C(=O)N[C@@H](CCCNC(=N)N)C(=O)N[C@@H](CCCCN)C(=O)N[C@@H](Cc1ccc(O)cc1)C(=O)N[C@@H](CC(C)C)C(=O)N[C@@H](CC(N)=O)C(=O)N[C@@H](Cc1c[nH]c2ccccc12)C(=O)N[C@H](C(=O)N[C@H](C(=O)N[C@@H](CCCNC(=N)N)C(=O)N[C@@H](CCC(N)=O)C(=O)N[C@@H](CCCNC(=N)N)C(=O)N[C@@H](Cc1ccc(O)cc1)C(N)=O)[C@@H](C)O)C(C)C [Example 10] | −88 | – | – |
| CC(C)C[C@H](NC(=O)[C@H](CO)NC(=O)[C@H](C)NC(=O)[C@H](Cc1ccc(O)cc1)NC(=O)[C@H](Cc1ccc(O)cc1)NC(=O)[C@H](CCCNC(=N)N)NC(=O)[C@H](CC(N)=O)NC(=O)[C@H](CC(C)C)NC(=O)[C@H](CCC(=O)O)NC(=O)[C@H](CCC(=O)O)NC(=O)[C@@H]1CCCN1C(=O)[C@H](CO)NC(=O)[C@H](C)NC(=O)[C@H](CC(=O)O)NC(=O)[C@H](CCCCN)NC(=O)CNC(=O)[C@@H]1CCCN1C(=O)[C@H](C)NC(=O)[C@H](CCC(=O)O)NC(=O)[C@@H]1CCCN1C(=O)[C@H](CCCCN)NC(=O)[C@@H]1CCCN1)C(=O)N[C@@H](CCCNC(=N)N)C(=O)N[C@@H](CCCCN)C(=O)N[C@@H](Cc1ccc(O)cc1)C(=O)N[C@@H](CC(C)C)C(=O)N[C@@H](CC(N)=O)C(=O)N[C@@H](Cc1c[nH]c2ccccc12)C(=O)N[C@H](C(=O)N[C@H](C(=O)N[C@@H](CCCNC(=N)N)C(=O)N[C@@H](CCC(N)=O)C(=O)N[C@@H](CCCNC(=N)N)C(=O)N[C@@H](Cc1ccc(O)cc1)C(N)=O)[C@@H](C)O)C(C)C [Example 31] | −59 | – | – |
| CC[C@H](C)[C@H](N)C(=O)N[C@@H](CCCCN)C(=O)N1CCC[C@H]1C(=O)N1CCC[C@H]1C(=O)N[C@@H](Cc1ccc(O)cc1)C(=O)N1CCC[C@H]1C(=O)NCC(=O)N[C@@H](CS)C(=O)N[C@@H](CC(=O)O)C(=O)N[C@@H](C)C(=O)N[C@@H](CO)C(=O)N1CCC[C@H]1C(=O)N[C@@H](CCC(=O)O)C(=O)N[C@@H](CCC(=O)O)C(=O)N[C@@H](CCC(N)=O)C(=O)N[C@@H](CC(N)=O)C(=O)N[C@@H](CCCCN)C(=O)N[C@@H](Cc1ccc(O)cc1)C(=O)N[C@@H](Cc1ccc(O)cc1)C(=O)N[C@@H](C)C(=O)N[C@@H](CO)C(=O)N[C@@H](CC(C)C)C(=O)N[C@@H](CCCNC(=N)N)C(=O)N[C@@H](C)C(=O)N[C@@H](Cc1ccc(O)cc1)C(=O)N[C@@H](Cc1c[nH]c2ccccc12)C(=O)N[C@@H](CC(N)=O)C(=O)N[C@@H](CC(C)C)C(=O)N[C@H](C(=O)N[C@H](C(=O)N[C@@H](CCCNC(=N)N)C(=O)N[C@@H](CCC(N)=O)C(=O)N[C@@H](CCCNC(=N)N)C(=O)N[C@@H](Cc1ccc(O)cc1)C(N)=O)[C@@H](C)O)C(C)C [Peptide 8] | – | −19 | – |
| H-IKPEAPLSKQLEEEAVRYYASLRHYLNLVTRQRY-NH2 [Peptide 2] | – | −12 | – |
| H-PEPEHPGCDASPEDQNKYHASLRKYLNWVTRQRY-NH2 [Peptide 10] | – | −21 | – |
| H-PKPEAPGCDASPEEWNRYYASLRKYLNWVTRQHY-NH2 [Peptide 14] | – | 24 | – |
| H-PKPEAPGCDASPEEWNRYYASLRKYLNWVTRQNY-NH2 [Peptide 1] | – | 5 | – |
| H-PKPEAPGEDASPKEWNRYYASLRKYLNWVTRQRY-NH2 [Peptide 3] | – | −30 | – |
| H-PQPESPEGNASPEDWACYHAAVRHYVNLITRQRY-NH2 [Peptide 18] | – | −17 | – |
| PKPEAPLSKQLEEEAVRYYASLRHYLNLVTRQRY-NH2 [Peptide 21] | – | −2 | – |
| PKPVAPGCDASPAELNRQYSDLRNYWNLVTRQRY-NH2 [Peptide 15] | – | −17 | – |
| PYY(3-36)NH2 | – | – | weight loss vs. vehicle ([2]; 40 days, s.c. osmotic pumps, ED50 doses): −1.3%; inhibition of cumulative food intake ([2]; chronic infusion, vs. vehicle control): −0.7%; ΔΔGlucose ([3]; 26 days, change from baseline and vehicle control, ED20 doses): −33.1 ± 17^ mg/dL |
| exendin-4 | – | – | ED50 for weight loss [2, 5]: 0.15 mg/kg/day; ED20 for HbA1c lowering [3, 5]: 0.0055 mg/kg/day |
